Consider 75 substances from publication PMC4865845, “A human genome-wide loss-of-function screen identifies effective chikungunya antiviral drugs” (Nature Communications, 2016).

The test system of the data set is CHIKV. The class given is cell-based, chikungunya virus.
“s34429 (CTCCTGCCTTGAGCCCTTA; chemistry not given here)” came in with a Score_si4 of 0.3.
As for “Hs_MAP3K14_1 (CAGGACTCACGTAGCATTAAA; chemistry not given here)”, the Score_si2 came to 1.59.
“s8322 (GGTCGGAGATTTGCAAGGA; chemistry not given here)” showed a Score_si3 of 1.44.
“Hs_ENTPD2_2 (CGGCGTGATCTTCCAGAAGAA; chemistry not given here)” came in with a Score_si1 of 1.32.
Take “s17187 (GGATTGACCTCACCCAGAA; chemistry not given here)”: the Score_si1 is 2.03.
The substance “s25186 (sense ACTTCTCCGTGATCCTGAA; chemistry not given here)” gave a Score_si2 of 1.53.
“Hs_DKFZp547E052_2 (CAGGAGATAGGACATCATTTA; chemistry not given here)” had a Score_si1 of 2.29.
For “Hs_FCGRT_2 (AAGGATGTAAATGTGATTCCA; chemistry not given here)”, the Score_si2 amounted to 1.36.
Substance “Hs_GPS1_3 (sense CAAGTGGGCGGTGTCCATTAA; chemistry not given here)” showed a Score_si3 of 1.75.
For the substance “s31193 (GGAATGATGTCGTCAGTAA; chemistry not given here)”, the Score_si4 is given as 1.58.
Consider “s38817 (GCAAATCTCTCTATCCTTA; chemistry not given here)”, for which the Score_si4 was 0.06.
Consider “s10096 (GGTGTAAGATCAAAGAGAT; chemistry not given here)”, for which the Score_si3 was 1.3.
With “s32489 (GGAACAAGCTGTGATCCCA; chemistry not given here)”, the Score_si1 stood at 1.66.
For “s6670 (sense CAACAGGAGGAAGACTTTA; chemistry not given here)”, the Score_si4 was -0.15.
Turning to “s17591 (CGATATGAACCTGACAGTA; chemistry not given here) [reference compound]”, the Score_si3 was -0.15.
With “s16998 (GAAATTCCATGTCATTGTA; chemistry not given here)”, the Score_si4 is given as 0.65.
Take “s30606 (CAGTGATGGTGATTCAGAT; chemistry not given here)”: the Score_si4 was 0.49.
With “Hs_XRN1_1 (CAGGTCGTAAATATCAAATAA; chemistry not given here)”, the Score_si3 was determined as 1.08.
Turning to “Hs_GP1BB_5 (sense ACGAGTCCTGAGGAGAGAA; chemistry not given here) [reference compound]”, the Score_si1 is listed as -1.46.
Take “Hs_DC-UbP_5 (AGGCAGTTAAGAAATAGATAA; chemistry not given here)”: the Score_si3 was found to be 0.86.
The substance “s195093 (sense AGCTGTCCCTCTTTGCTGT; chemistry not given here) [reference compound]” came in with a Score_si3 of -0.16.
The substance “s10094 (AGATCAAAGAGATCCGCGA; chemistry not given here)” came in with a Score_si4 of 0.28.
The substance “s18705 (sense GCTCGTTACCTACATAGTA; chemistry not given here) [reference compound]” came in with a Score_si2 of -0.84.
Regarding “Hs_SLC6A19_2 (sense CTCGGTGATTGTGTCCATCAT; chemistry not given here)”, the Score_si1 is 2.5.
Regarding “s31660 (CTGTCACACTCACTGAAAA; chemistry not given here)”, the Score_si1 was 1.8.
Regarding “Hs_CCDC6_2 (sense CAGGAATTTCAGGTCAACAAA; chemistry not given here) [reference compound]”, the Score_si2 was -0.83.
With “s16997 (CAGCTTCCATTATGCCCAA; chemistry not given here)”, the Score_si3 stood at 0.97.
Consider “Hs_IRAK1_6 (sense TCCCATCGCCATGCAGATCTA; chemistry not given here)”, for which the Score_si3 is 1.57.
With “s322 (GGTTGTCCTTGAGTAATAA; chemistry not given here)”, the Score_si1 stood at 1.71.
As to “s28367 (sense CGACAAGAACGAAGACAGA; chemistry not given here) [reference compound]”, the Score_si2 is on record as -1.08.
Turning to “Hs_PDLIM5_5 (CAGCAGGGAAACGAACTCCGA; chemistry not given here)”, the Score_si2 is 1.07.
The substance “s11587 (sense CAGGTCACATTGTTCCTGA; chemistry not given here)” gave a Score_si2 of 1.27.
In turn, “s25485 (sense ACTTCCTGTTGGTCTACAA; chemistry not given here)” displayed a Score_si3 of 1.19.
Take “Hs_BOP1_2 (CTGCCATGGCATGGTGTACAA; chemistry not given here)”: the Score_si2 is on record as 2.23.
Substance “Hs_SREBF2_1 (sense ACCCATAATATCATTGAGAAA; chemistry not given here)” returned a Score_si4 of 1.37.
In turn, “Hs_NPEPL1_2 (CACCTTCCTCGAGGAGATTAA; chemistry not given here)” came in with a Score_si2 of 1.71.
The substance “s17018 (GGAAATAGGTCTAGTACTA; chemistry not given here)” gave a Score_si3 of 1.2.
Same read-out and setting: for “s38816 (GAACATCTGGATCAAGAGA; chemistry not given here)” the value was 1.02.
On to “Hs_MGC2803_2 (CGGGAACAAACTAGCCCTCAA; chemistry not given here)”, for which the Score_si1 is on record as 2.43.
The substance “Hs_CAMKK2_3 (TAGCAGCATGTCCTACGGAAA; chemistry not given here)” showed a Score_si4 of 1.01.
“s12381 (sense AGGCTCAGATCGACCAATA; chemistry not given here)” yielded a Score_si3 of 0.71.
On to “Hs_MAP2K2_9 (TTCCAGGAGTTTGTCAATAAA; chemistry not given here)”, for which the Score_si4 amounted to 0.51.
Substance “Hs_NPAT_2 (AAGGCACATCTTCAAACAATA; chemistry not given here) [reference compound]” yielded a Score_si1 of -1.61.
The substance “s195060 (sense CCAGATCTATGAATTGGAA; chemistry not given here)” gave a Score_si2 of 1.92.
Take “Hs_NAG_2 (CAGACAGAAATTCTTTATCAA; chemistry not given here)”: the Score_si1 is given as 2.66.
“s16047 (GAACCCATATTATTAGTGA; chemistry not given here) [reference compound]”: the Score_si2 is given as -0.72.
Turning to “s5031 (sense CCGTGGACCTGATCATCAA; chemistry not given here)”, the Score_si2 is given as 2.04.
Consider “s37715 (CCGGAGAACCTGAAACTCA; chemistry not given here)”, for which the Score_si2 was found to be 1.43.
“s19090 (sense GGATCTGACTATTCGCACT; chemistry not given here) [reference compound]” gave a Score_si4 of 0.04.
Consider “s9719 (GGTCTATGATTGACAAGTA; chemistry not given here)”, for which the Score_si1 came out at 1.65.
“s195643 (sense CCCTAGGCGCTGGATTTTG; chemistry not given here)” showed a Score_si4 of 0.23.
Substance “Hs_GLTSCR2_6 (sense CCGGAGCTTCCTACAATCCAT; chemistry not given here)” gave a Score_si3 of 1.7.
In the case of “Hs_TRAF2_5 (CACGAGGGCATATATGAAGAA; chemistry not given here) [reference compound]”, the Score_si4 is recorded as -0.76.
The substance “Hs_LOH12CR1_1 (sense CCCGATGTCATCAAGTTGCAA; chemistry not given here)” displayed a Score_si1 of 2.42.
“s1698 (CGAACTACACCTTCAGCTA; chemistry not given here) [reference compound]” returned a Score_si3 of -0.99.
Consider “Hs_EZH2_6 (CAGGATGGTACTTTCATTGAA; chemistry not given here)”, for which the Score_si1 came out at 1.77.
Substance “Hs_LOXL2_1 (sense CCGGAGTTGCCTGCTCAGAAA; chemistry not given here)” returned a Score_si2 of 1.33.
“s38243 (AGAAATTCCGGAACCAATT; chemistry not given here)” registered a Score_si2 of 0.8.
The substance “s2664 (sense CGTCCATGTTTATCTACAA; chemistry not given here)” showed a Score_si4 of 0.12.
In turn, “Hs_TMPIT_1 (sense CTGGTGGGTGTTCCATCACTA; chemistry not given here)” displayed a Score_si1 of 2.87.
As for “Hs_CNOT3_2 (sense ACGGCTGAGGGACCAAATCAA; chemistry not given here)”, the Score_si3 was found to be 1.32.
Take “Hs_NRD1_2 (AAGGCTTTCGATTGCCCGGAA; chemistry not given here)”: the Score_si2 is given as 1.41.
In the case of “Hs_AQP3_2 (CTGGATGTACATACATAAGTA; chemistry not given here)”, the Score_si3 came to 1.09.
In turn, “Hs_PRPF4B_2 (sense CACCCTTAAATCGTTATTAAT; chemistry not given here)” yielded a Score_si4 of 0.63.
The substance “s6126 (sense GAATGCTCCTTTACCAGAA; chemistry not given here)” returned a Score_si2 of 0.75.
As to “Hs_RORC_3 (sense CCGGGCCTACAATGCTGACAA; chemistry not given here)”, the Score_si4 is 0.9.
With “Hs_LTBP3_1 (CCGGGACAGATCTCAGCAGAA; chemistry not given here)”, the Score_si2 stood at 1.9.
In turn, “s21626 (sense GGCAGTTGATTGTGGATGA; chemistry not given here)” registered a Score_si4 of 0.37.
Regarding “Hs_SAFB_1 (sense ACGGACTGTAGTAATGGATAA; chemistry not given here)”, the Score_si3 is 0.86.
Substance “Hs_AQP3_3 (CTGGATCAAGCTGCCCATCTA; chemistry not given here)” had a Score_si1 of 1.31.
“s916 (GCATCGCAAACTTCACCAA; chemistry not given here)”: the Score_si3 is 1.06.
For the substance “Hs_ASH2L_1 (CCGAGTAACTAACTTATTTAA; chemistry not given here)”, the Score_si2 stood at 1.07.
As for “s29 (CCCATAATATCATTGAGAA; chemistry not given here)”, the Score_si2 was 1.87.
Regarding “s14706 (sense GCATGATCTAGATCGAGTA; chemistry not given here)”, the Score_si3 is given as 1.88.
“Hs_P4HB_6 (AAGATGAACTGTAATACGCAA; chemistry not given here)”: the Score_si1 is recorded as 1.38.
